Columns and labels:
[1] = biological target: T1, Peroxisome proliferator-activated receptor delta (Homo sapiens, UniProt Q03181)
T1 sequence (Q03181 whole entry): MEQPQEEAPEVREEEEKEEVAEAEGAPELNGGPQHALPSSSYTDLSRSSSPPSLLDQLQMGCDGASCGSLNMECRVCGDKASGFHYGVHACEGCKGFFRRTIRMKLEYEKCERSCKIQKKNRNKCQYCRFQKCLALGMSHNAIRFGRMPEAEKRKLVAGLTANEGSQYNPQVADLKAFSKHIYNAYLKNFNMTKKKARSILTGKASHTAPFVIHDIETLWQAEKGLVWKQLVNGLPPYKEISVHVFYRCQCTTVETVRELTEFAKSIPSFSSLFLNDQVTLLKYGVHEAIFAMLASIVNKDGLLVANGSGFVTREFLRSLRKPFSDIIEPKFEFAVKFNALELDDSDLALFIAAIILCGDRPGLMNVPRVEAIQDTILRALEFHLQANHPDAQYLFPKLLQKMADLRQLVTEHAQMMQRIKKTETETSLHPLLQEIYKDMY
Description: Binding affinity to PPAR-delta (unknown origin) by TR-FRET assay

[2] = biological target: T2, Peroxisome proliferator-activated receptor gamma (Homo sapiens, UniProt P37231)
T2 sequence (P37231 whole entry): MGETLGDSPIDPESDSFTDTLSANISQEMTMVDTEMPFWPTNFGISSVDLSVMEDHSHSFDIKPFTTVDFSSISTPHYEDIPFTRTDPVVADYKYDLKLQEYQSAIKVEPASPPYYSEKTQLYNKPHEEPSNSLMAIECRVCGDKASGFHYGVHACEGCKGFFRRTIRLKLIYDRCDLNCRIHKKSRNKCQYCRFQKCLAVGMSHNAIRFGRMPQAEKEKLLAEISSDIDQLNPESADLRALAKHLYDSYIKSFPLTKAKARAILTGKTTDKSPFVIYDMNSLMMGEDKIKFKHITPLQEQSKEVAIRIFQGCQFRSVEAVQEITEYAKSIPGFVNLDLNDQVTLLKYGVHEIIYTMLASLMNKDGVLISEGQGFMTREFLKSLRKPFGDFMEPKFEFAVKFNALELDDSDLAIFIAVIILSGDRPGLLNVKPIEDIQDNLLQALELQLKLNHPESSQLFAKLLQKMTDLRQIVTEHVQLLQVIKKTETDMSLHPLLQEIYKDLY
Description: Binding affinity to PPAR-gamma (unknown origin) by TR-FRET assay

| SMILES | Ki [1] | Ki [2] |
| --- | --- | --- |
| O[C@@H]1[C@H](O)CS[C@H]1Cn1cnc2c(NCc3cccc(F)c3)nc(Cl)nc21 | 1.91 µM | 3.89 µM |
| O[C@@H]1[C@H](O)CS[C@H]1Cn1cnc2c(NCc3cccc(Br)c3)nc(Cl)nc21 | 0.592 µM | 4.07 µM |
| O[C@@H]1[C@H](O)CS[C@H]1n1cnc2c(NCc3cccc(I)c3)nc(Cl)nc21 | 0.0106 µM | – |
| CC#Cc1nc(NCc2cccc(I)c2)c2ncn(C[C@@H]3SC[C@@H](O)[C@H]3O)c2n1 | – | 7.3 µM |
| O[C@@H]1[C@H](O)CO[C@H]1Cn1cnc2c(NCc3cccc(Br)c3)nc(Cl)nc21 | 1.43 µM | 9.55 µM |
| CC#Cc1nc(NCc2cccc(F)c2)c2ncn(C[C@@H]3SC[C@@H](O)[C@H]3O)c2n1 | – | 7.66 µM |
| CC#Cc1nc(NCc2cccc(Br)c2)c2ncn(C[C@@H]3SC[C@@H](O)[C@H]3O)c2n1 | – | 7.04 µM |
| O[C@@H]1[C@H](O)CO[C@H]1Cn1cnc2c(NCc3cccc(Cl)c3)nc(Cl)nc21 | 0.504 µM | 7.66 µM |

From ChEMBL document CHEMBL4699668, “Discovery and Structure-Activity Relationships of Novel Template, Truncated 1'-Homologated Adenosine Derivatives as Pure Dual PPARγ/δ Modulators” (J Med Chem, 2020)
